Experimental data as given in patent US20250034139A1, “AMINE COMPOUNDS HAVING ANTI-INFLAMMATORY, ANTIFUNGAL, ANTIPARASITIC, AND ANTICANCER ACTIVITY” (PHARMA CINQ, LLC, priority 2013, published 2025).

The compounds below were run on THP-1 cells (assay: Example D: LPS-triggered THP-1 cell death assay, acute/5-hour and chronic/48-hour). Conditions: 10 ng/ml LPS, 0.1 μM test compound, 48 hours.
Format: cell-based, Human
Description: Compounds of the invention were tested at 0.1 μM versus AC in the LPS-triggered THP-1 cell death assay. Both acute/5-hour and chronic/48-hour phases of cell death were assessed. Compounds were screened in batches with DMSO as the negative control and AC as the high activity control.

SMILES	Viable cell percent change, Chronic/48-hour, Mean
c1ccc(COCCCCCCCCNc2ccnc3ccccc23)cc1 [CO, N-[8-(Benzyloxy)octyl]quinolin-4-amine]	43.95%
CCCCCCOc1ccccc1OCCCCNc1ccnc2ccccc12 [CR, N-{4-[2-(Hexyloxy)phenoxy]butyl}quinolin-4-amine]	40.02%
CCCCCCOc1cccc(OCCCCNc2ccnc3ccccc23)c1 [CV, N-{4-[3-(Hexyloxy)phenoxy]butyl}quinolin-4-amine]	23.02%
CCCCCCOc1cccc(OCCNc2ccnc3ccccc23)c1 [CW, N-{2-[3-(Hexyloxy)phenoxy]ethyl}quinolin-4-amine]	43.71%
CCCCCCOc1ccc(OCCCNc2ccnc3ccccc23)cc1 [CY, N-{3-[4-(Hexyloxy)phenoxy]propyl}quinolin-4-amine]	47.86%
CC(C)(C)c1ccc(OCCCCCCCCNc2ccnc3ccccc23)cc1 [DA, N-[8-(4-tert-Butylphenoxy)octyl]quinolin-4-amine]	43.55%

Same assay, conditions: 0.1 μM, 5-hour and 48-hour time points

SMILES	activity relative to AC in the LPS-triggered THP-1 cell death assay, in words
CCCCCCOc1cccc(OCCCCNc2ccnc3ccccc23)c1 [CV, N-{4-[3-(Hexyloxy)phenoxy]butyl}quinolin-4-amine]	equivalent activity to AC at both the 5-hour and 48-hour time points

What follows are compounds tested on 4T1 murine breast cancer cells (assay: Example S: in vitro anticancer screen, 4T1 cells, Wst1). Conditions: Mus musculus, 4T1, 18 h, 1 μM, 18 hr, Wst1; read-out: 4T1 1 μM, percent of cancer cell survival relative to vehicle treated cells.
Format: cell-based, mouse
Method in brief: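 Read-out is Wst1 absorbance (450 nm, reference 630 nm) after roughly 2 hr dye incubation, giving percent cell survival versus vehicle. Before that, compounds at 1 μM or 5 μM were applied for 18 hr to 4T1 cells plated at 1×10^4 per well.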

SMILES	viability at 1 µM
c1ccc(COCCCCCCCCNc2ccnc3ccccc23)cc1 [CO, N-[8-(Benzyloxy)octyl]quinolin-4-amine]	28.4%
CCCCCCOc1ccccc1OCCCCNc1ccnc2ccccc12 [CR, N-{4-[2-(Hexyloxy)phenoxy]butyl}quinolin-4-amine]	110%
CCCCCCOc1cccc(OCCCCNc2ccnc3ccccc23)c1 [CV, N-{4-[3-(Hexyloxy)phenoxy]butyl}quinolin-4-amine]	25.7%
CCCCCCOc1cccc(OCCNc2ccnc3ccccc23)c1 [CW, N-{2-[3-(Hexyloxy)phenoxy]ethyl}quinolin-4-amine]	25.1%
CCCCCCOc1ccc(OCCCNc2ccnc3ccccc23)cc1 [CY, N-{3-[4-(Hexyloxy)phenoxy]propyl}quinolin-4-amine]	24.5%
CC(C)(C)c1ccc(OCCCCCCCCNc2ccnc3ccccc23)cc1 [DA, N-[8-(4-tert-Butylphenoxy)octyl]quinolin-4-amine]	17.6%

Same assay, conditions: Mus musculus, 4T1, 18 h, 5 μM, 18 hr, Wst1; read-out: 4T1 5 μM, percent of cancer cell survival relative to vehicle treated cells

SMILES	viability at 5 µM
c1ccc(COCCCCCCCCNc2ccnc3ccccc23)cc1 [CO, N-[8-(Benzyloxy)octyl]quinolin-4-amine]	55.6%
CCCCCCOc1ccccc1OCCCCNc1ccnc2ccccc12 [CR, N-{4-[2-(Hexyloxy)phenoxy]butyl}quinolin-4-amine]	31.8%
CCCCCCOc1cccc(OCCCCNc2ccnc3ccccc23)c1 [CV, N-{4-[3-(Hexyloxy)phenoxy]butyl}quinolin-4-amine]	16.9%
CCCCCCOc1cccc(OCCNc2ccnc3ccccc23)c1 [CW, N-{2-[3-(Hexyloxy)phenoxy]ethyl}quinolin-4-amine]	18.4%
CCCCCCOc1ccc(OCCCNc2ccnc3ccccc23)cc1 [CY, N-{3-[4-(Hexyloxy)phenoxy]propyl}quinolin-4-amine]	29.1%
CC(C)(C)c1ccc(OCCCCCCCCNc2ccnc3ccccc23)cc1 [DA, N-[8-(4-tert-Butylphenoxy)octyl]quinolin-4-amine]	18.4%

What follows are compounds tested on PC3 human prostate cancer cells (assay: Example S: in vitro anticancer screen, PC-3 cells, Wst1). Conditions: Homo sapiens, PC-3; 0.4 μM, approximately 20 hours, Wst1; read-out: PC-3, percent of cancer cell survival relative to vehicle treated cells.
Format: cell-based
Description: Activity against PC3 human prostate cancer cells in vitro was assessed by a similar method. PC-3 prostate cancer cells were plated at 2×10^4 cells/well in 96 well flat bottom tissue culture plates, and incubated for approximately 20 hours with vehicle or test compounds at concentrations of 0.4, 0.5 or 2.5 μM as indicated for specific compounds in the right-hand column of Table 37. A 1/10th volume of Wst1 dye was added/well and incubated for two hours in the cell culture incubator. Samples were analyzed in triplicate on an EL800 Universal Microplate Reader at 450 nm, reference wavelength 630 nm.
Numerical values in the Table 37 represent percent of cancer cell survival relative to vehicle treated cells at the indicated concentrations, with values under 100 indicating anticancer cytotoxic activity at the drugs concentrations tested.

SMILES	viability at 0.4 µM
c1ccc(COCCCCCCCCNc2ccnc3ccccc23)cc1 [CO, N-[8-(Benzyloxy)octyl]quinolin-4-amine]	77.1%
CCCCCCOc1cccc(OCCNc2ccnc3ccccc23)c1 [CW, N-{2-[3-(Hexyloxy)phenoxy]ethyl}quinolin-4-amine]	98.5%
CCCCCCOc1ccc(OCCCNc2ccnc3ccccc23)cc1 [CY, N-{3-[4-(Hexyloxy)phenoxy]propyl}quinolin-4-amine]	40.5%
CC(C)(C)c1ccc(OCCCCCCCCNc2ccnc3ccccc23)cc1 [DA, N-[8-(4-tert-Butylphenoxy)octyl]quinolin-4-amine]	95.7%

Same assay, conditions: Homo sapiens, PC-3; 0.5 μM, approximately 20 hours, Wst1; read-out: PC-3, percent of cancer cell survival relative to vehicle treated cells

SMILES	viability at 0.5 µM
CCCCCCOc1cccc(OCCCCNc2ccnc3ccccc23)c1 [CV, N-{4-[3-(Hexyloxy)phenoxy]butyl}quinolin-4-amine]	73.8%

Same assay, conditions: Homo sapiens, PC-3; 2.5 μM, approximately 20 hours, Wst1; read-out: PC-3, percent of cancer cell survival relative to vehicle treated cells

SMILES	viability at 2.5 µM
CCCCCCOc1ccccc1OCCCCNc1ccnc2ccccc12 [CR, N-{4-[2-(Hexyloxy)phenoxy]butyl}quinolin-4-amine]	53.2%

These compounds were tested on PC-3 prostate cancer cells (assay: Example T: sensitisation of PC-3 cells to doxorubicin, oxaliplatin, paclitaxel or vincristine, Wst1). Conditions: Homo sapiens; PC-3 cells; compound 0.4 μM alone; 72 hours; Wst1; vehicle = 100; read-out: No Chemo: percent cell survival.
Format: cell-based, human

SMILES	viability at 0.4 µM
c1ccc(COCCCCCCCCNc2ccnc3ccccc23)cc1 [CO, N-[8-(Benzyloxy)octyl]quinolin-4-amine]	77.1%
CCCCCCOc1cccc(OCCNc2ccnc3ccccc23)c1 [CW, N-{2-[3-(Hexyloxy)phenoxy]ethyl}quinolin-4-amine]	98.5%
CCCCCCOc1ccc(OCCCNc2ccnc3ccccc23)cc1 [CY, N-{3-[4-(Hexyloxy)phenoxy]propyl}quinolin-4-amine]	40.5%
CC(C)(C)c1ccc(OCCCCCCCCNc2ccnc3ccccc23)cc1 [DA, N-[8-(4-tert-Butylphenoxy)octyl]quinolin-4-amine]	95.7%

Same assay, conditions: Homo sapiens; PC-3 cells; compound 0.5 μM alone; 72 hours; Wst1; vehicle = 100; read-out: No Chemo: percent cell survival

SMILES	viability at 0.5 µM
CCCCCCOc1cccc(OCCCCNc2ccnc3ccccc23)c1 [CV, N-{4-[3-(Hexyloxy)phenoxy]butyl}quinolin-4-amine]	73.8%

Same assay, conditions: Homo sapiens; PC-3 cells; compound 2.5 μM alone; 72 hours; Wst1; vehicle = 100; read-out: No Chemo: percent cell survival

SMILES	viability at 2.5 µM
CCCCCCOc1ccccc1OCCCCNc1ccnc2ccccc12 [CR, N-{4-[2-(Hexyloxy)phenoxy]butyl}quinolin-4-amine]	53.2%

Same assay, conditions: PC-3 cells; compound 0.4 μM + doxorubicin 3.5 μM; 72 hours; chemotherapy agent alone normalized to 100%

SMILES	Doxorubicin 3.5 μM: percent cell survival
c1ccc(COCCCCCCCCNc2ccnc3ccccc23)cc1 [CO, N-[8-(Benzyloxy)octyl]quinolin-4-amine]	28.4%
CCCCCCOc1cccc(OCCNc2ccnc3ccccc23)c1 [CW, N-{2-[3-(Hexyloxy)phenoxy]ethyl}quinolin-4-amine]	31.9%
CCCCCCOc1ccc(OCCCNc2ccnc3ccccc23)cc1 [CY, N-{3-[4-(Hexyloxy)phenoxy]propyl}quinolin-4-amine]	76.6%
CC(C)(C)c1ccc(OCCCCCCCCNc2ccnc3ccccc23)cc1 [DA, N-[8-(4-tert-Butylphenoxy)octyl]quinolin-4-amine]	82.8%

Same assay, conditions: PC-3 cells; compound 0.4 μM + oxaliplatin 100 μM; 72 hours; chemotherapy agent alone normalized to 100%

SMILES	Oxaliplatin 100 μM: percent cell survival
c1ccc(COCCCCCCCCNc2ccnc3ccccc23)cc1 [CO, N-[8-(Benzyloxy)octyl]quinolin-4-amine]	29.2%
CCCCCCOc1cccc(OCCNc2ccnc3ccccc23)c1 [CW, N-{2-[3-(Hexyloxy)phenoxy]ethyl}quinolin-4-amine]	26.6%
CCCCCCOc1ccc(OCCCNc2ccnc3ccccc23)cc1 [CY, N-{3-[4-(Hexyloxy)phenoxy]propyl}quinolin-4-amine]	84.3%
CC(C)(C)c1ccc(OCCCCCCCCNc2ccnc3ccccc23)cc1 [DA, N-[8-(4-tert-Butylphenoxy)octyl]quinolin-4-amine]	91.3%

Same assay, conditions: PC-3 cells; compound 0.4 μM + paclitaxel 50 μM; 72 hours; chemotherapy agent alone normalized to 100%

SMILES	Paclitaxel 50 μM: percent cell survival
c1ccc(COCCCCCCCCNc2ccnc3ccccc23)cc1 [CO, N-[8-(Benzyloxy)octyl]quinolin-4-amine]	51.6%
CCCCCCOc1cccc(OCCNc2ccnc3ccccc23)c1 [CW, N-{2-[3-(Hexyloxy)phenoxy]ethyl}quinolin-4-amine]	55.9%
CCCCCCOc1ccc(OCCCNc2ccnc3ccccc23)cc1 [CY, N-{3-[4-(Hexyloxy)phenoxy]propyl}quinolin-4-amine]	71.7%
CC(C)(C)c1ccc(OCCCCCCCCNc2ccnc3ccccc23)cc1 [DA, N-[8-(4-tert-Butylphenoxy)octyl]quinolin-4-amine]	100.8%

Same assay, conditions: PC-3 cells; compound 0.4 μM + vincristine 100 nM; 72 hours; chemotherapy agent alone normalized to 100%

SMILES	Vincristine 100 nM: percent cell survival
c1ccc(COCCCCCCCCNc2ccnc3ccccc23)cc1 [CO, N-[8-(Benzyloxy)octyl]quinolin-4-amine]	32.8%
CCCCCCOc1cccc(OCCNc2ccnc3ccccc23)c1 [CW, N-{2-[3-(Hexyloxy)phenoxy]ethyl}quinolin-4-amine]	69.4%
CCCCCCOc1ccc(OCCCNc2ccnc3ccccc23)cc1 [CY, N-{3-[4-(Hexyloxy)phenoxy]propyl}quinolin-4-amine]	81.7%
CC(C)(C)c1ccc(OCCCCCCCCNc2ccnc3ccccc23)cc1 [DA, N-[8-(4-tert-Butylphenoxy)octyl]quinolin-4-amine]	19.1%

Same assay, conditions: PC-3 cells; compound 0.5 μM + doxorubicin 3.5 μM; 72 hours; chemotherapy agent alone normalized to 100%

SMILES	Doxorubicin 3.5 μM: percent cell survival
CCCCCCOc1cccc(OCCCCNc2ccnc3ccccc23)c1 [CV, N-{4-[3-(Hexyloxy)phenoxy]butyl}quinolin-4-amine]	36.2%

Same assay, conditions: PC-3 cells; compound 0.5 μM + oxaliplatin 100 μM; 72 hours; chemotherapy agent alone normalized to 100%

SMILES	Oxaliplatin 100 μM: percent cell survival
CCCCCCOc1cccc(OCCCCNc2ccnc3ccccc23)c1 [CV, N-{4-[3-(Hexyloxy)phenoxy]butyl}quinolin-4-amine]	30.6%

Same assay, conditions: PC-3 cells; compound 0.5 μM + paclitaxel 50 μM; 72 hours; chemotherapy agent alone normalized to 100%

SMILES	Paclitaxel 50 μM: percent cell survival
CCCCCCOc1cccc(OCCCCNc2ccnc3ccccc23)c1 [CV, N-{4-[3-(Hexyloxy)phenoxy]butyl}quinolin-4-amine]	21.4%

Same assay, conditions: PC-3 cells; compound 0.5 μM + vincristine 100 nM; 72 hours; chemotherapy agent alone normalized to 100%

SMILES	Vincristine 100 nM: percent cell survival
CCCCCCOc1cccc(OCCCCNc2ccnc3ccccc23)c1 [CV, N-{4-[3-(Hexyloxy)phenoxy]butyl}quinolin-4-amine]	36.1%

Same assay, conditions: PC-3 cells; compound 2.5 μM + doxorubicin 3.5 μM; 72 hours; chemotherapy agent alone normalized to 100%

SMILES	Doxorubicin 3.5 μM: percent cell survival
CCCCCCOc1ccccc1OCCCCNc1ccnc2ccccc12 [CR, N-{4-[2-(Hexyloxy)phenoxy]butyl}quinolin-4-amine]	87.6%

Same assay, conditions: PC-3 cells; compound 2.5 μM + oxaliplatin 100 μM; 72 hours; chemotherapy agent alone normalized to 100%

SMILES	Oxaliplatin 100 μM: percent cell survival
CCCCCCOc1ccccc1OCCCCNc1ccnc2ccccc12 [CR, N-{4-[2-(Hexyloxy)phenoxy]butyl}quinolin-4-amine]	89.3%

Same assay, conditions: PC-3 cells; compound 2.5 μM + paclitaxel 50 μM; 72 hours; chemotherapy agent alone normalized to 100%

SMILES	Paclitaxel 50 μM: percent cell survival
CCCCCCOc1ccccc1OCCCCNc1ccnc2ccccc12 [CR, N-{4-[2-(Hexyloxy)phenoxy]butyl}quinolin-4-amine]	93.4%

Same assay, conditions: PC-3 cells; compound 2.5 μM + vincristine 100 nM; 72 hours; chemotherapy agent alone normalized to 100%

SMILES	Vincristine 100 nM: percent cell survival
CCCCCCOc1ccccc1OCCCCNc1ccnc2ccccc12 [CR, N-{4-[2-(Hexyloxy)phenoxy]butyl}quinolin-4-amine]	86.9%
